# According to patent US20060116423A1, “Methods and compositions for treatment of central nervous system injury with isothiocyanates” (priority 2004, published 2006):
# Assays:
# blood-brain barrier = test: Blood-brain barrier integrity by Evan's blue dye extravasation after cortical impact injury; format: in vivo, rat; conditions: for blood-brain barrier permeability (Evans Blue extravasation): measured 24 h after TBI, vs vehicle
# Procedure: Blood-brain barrier integrity was assessed using extravagation of Evan's blue (EB) dye. When injected through the jugular vein of normal animals, EB is not detected in the nervous tissue. However, if the blood-brain barrier is compromised, EB can be detected in nervous tissues. The amount of EB can be quantified by extracting the dye from the tissue followed by spectrophotometric analysis at 610 nm wavelength. One and one-half hours prior to the above time points, animals were anesthetized and injected with 3% EB in saline (4 ml/kg) through the jugular vein. Animals were transcardially perfused with phosphate-buffered saline (PBS) until the out-coming liquid was clear followed by 4% paraformaldehyde (400 ml). The brain was removed and 2 mm-thick sections were prepared and incubated with 3 ml of 99.5% formamide in a 60° C. water bath for 24 hr. At the end of the incubation, tissues were removed and the formamide solution was centrifuged in an Eppendorf centrifuge at 12,000 rpm for 20 min. The supernatant solution was collected and the optical density at 610 nm was measured to determine the relative amount of EB dye in each sample.
# aquaporin-4 (AQP4) = system: aquaporin-4 (AQP4)
# Description: (§1) This model utilizes a pneumatic piston to deform a controllable volume of exposed cortex over a range of impact velocities. All protocols were in compliance with NIH's Guide for the Care and Use of Laboratory Animals and approved by the Institutional Animal Care and Use Committee. A controlled cortical impact device was used to cause brain trauma as previously described^6,7,26. Rats were anesthetized using 5% isoflurane with a 1:1 N2O:O2 mixture. The animals were then maintained with a 2% isoflurane/2:1 N2O:O2 mixture, via a face mask. Animals were mounted in the injury device stereotaxic frame secured by ear bars and an incisor bar. The head was held in a horizontal plane with respect to the interaural line. A midline incision was made, the soft tissues reflected, and bilateral 6 mm craniectomies were made midway between the bregma and lambda with the medial edge of each craniectomy 1 mm lateral to midline. Rats received a single impact at 1.8 mm deformation with an impact velocity of 6 m/sec at an angle of 20° from the vertical plane. Core body temperature was maintained at 37-38° C. by use of a rectal thermometer coupled to a heating pad. Sham rats were anesthetized and received craniectomies but were not cortically impacted. After injury or sham operation, the scalp was sutured and the animal placed in an oxygenated chamber and monitored during recovery. All rats were allowed to completely recover from the anesthesia after the surgery in a warm chamber before being sent back to the home cages. The type of brain trauma employed in this study produces both motor and cognitive deficits similar to those seen in human patients^6.
# (§2) Rats were killed and brains were removed quickly and dip-frozen in −80° C. isopentane for 20 sec.
# [1] = system: endothelial barrier antigen (EBA); conditions: 5 mg/kg and 20 mg/kg i.p. at 6 h after injury; samples at 24 h; cortices ipsilateral to injury; P<0.05 vs vehicle
# Description: as §1, §2
# [2] = system: glial fibrilary acidic protein (GFAP); conditions: 24 hr after injury; vehicle vs SUL-treated animals
# Description: as §1, §2
# [3] = system: rat endothelial cell antigen (RECA); conditions: 5 mg/kg and 20 mg/kg i.p. at 6 h after injury; samples at 24 h; cortices ipsilateral to injury; P<0.05 vs vehicle
# Description: as §1, §2
# [4] = system: tight junction proteins (claudin-5, occludin, ZO-1); conditions: administration six hours after injury; P<0.05 vs injury+vehicle
# Description: as §1, §2
# [5] = system: von-Willebrand factor (vWF); conditions: administration six hours after injury; vs injury+vehicle
# Description: as §1, §2
# brain injured rats [6] = system: brain injured rats
# Description: as §1
# brain swelling (edema) = conditions: P<0.05 vs vehicle
# Description: as §1
# brain injured rats [7] = conditions: 5 mg/kg i.p. 6 hr post-injury, P<0.05 vs vehicle
# Description: as §1, with “All rats were allowed to completely recover from the anesthesia after the surgery in a warm chamber before being sent back to the home cages. The type of brain trauma employed in this study produces both motor and cognitive deficits similar to those seen in human patients^6.” left out
# AQP4 mRNA = conditions: 5 mg/kg i.p.; 24 hr post-administration; cortical tissue; vehicle 100.00±18.16%; mean±S.E.M., n=3; P<0.05
# Procedure: Animals were killed and parietal cortical tissues were quickly dissected out and frozen in dry ice. The frozen tissue was homogenized in 1.5ml of TriZol (Invitrogen) per 100 mg tissue, followed by addition of chloroform (1:5) and incubation on ice for 20 min. The homogenate was centrifuged at 14,000×g for 30 min, and total RNA was precipitated by isopropanol. 1.0 jig total RNA was reverse transcribed for 2 hours at 37° C. in a 20μl mixture containing 50 mM Tris-HCl pH 8.3, 75 mM KCl, 3.0 mM MgCl2, 10 mM DTT, 2.5 μM random hexamer, 1.0 mM each dNTP, 20 U RNasin, and 200 U Superscript II reverse transcriptase. The level of expression of each target gene was quantified using a BioRad iCycler real-time PCR system (BioRad, Hercules, CA). Reactions were carried out in triplicate. Each 30 μl reaction mixture consisted of 1.5 μl of the cDNA and 18 mM Tris-HCl pH 8.3, 55 mM KCl, 2.0 mM MgCl2, 0.2 mM of each dNTP, 0.5μM of each primer, 10 nM fluorescein, 1:75,000 dilution of Sybr green I, and 2 U AmpliTaq DNA polymerase. […] The resultant data was analyzed using the iCycler iQ Real-Time Detection System software^33.
# To assess the ability of SUL to induce AQP4 expression, rats were intraperitonealy injected with either 5 mg/kg SUL prepared in corn oil or equal volume of vehicle. […] AQP4 mRNA levels were evaluated using real-time PCR. […]
# [8] = system: focal cerebral ischemia (CCA/MCA occlusion); conditions: 5 mg/kg i.p. 15 minutes after onset of ischemia; 3 hours CCA/MCA occlusion; three days following ischemia; vehicle 153.87±11.01 mm^3; P<0.05
# Procedure: Focal ischemia was induced by temporary left common carotid/middle cerebral artery (CCA/MCA) occlusion^1,41. Briefly, rats were anesthetized with chloral hydrate (0.45 g/kg IP). Core body temperature was maintained at 36.5±0.5° C. during ischemia The ipsilateral CCA was isolated and tagged through a ventral, cervical midline incision. A 0.005-inch-diameter stainless steel wire (Small Parts Inc) was placed underneath the left MCA rostral to the rhinal fissure, proximal to the major bifurcation of the MCA, and distal to the lenticulostriate arteries. The artery was then lifted, and the wire was rotated clockwise to ensure occlusion. The CCA was next occluded with an atraumatic aneurysm clip. Cerebral perfusion at the cortical surface, 3 mm distal to the locus of the MCA occlusion, was measured with a laser-Doppler flowmeter (LDF) (model BPM2, Vesamedic). […] After 180 minutes of MCA/CCA occlusion, reperfusion was established by reversing the occlusion procedure. […]
# Morphometric determination of infarct volume was obtained with the help of a computer-based image analyzer operated by Brain software (Drexel University). […] The infarct volume (mm^3) was calculated from the difference between the volume of contralateral cortex and the volume of the TTC-stained (nonischemic) portion of ipsilateral cortex of each rat. […]
# cortical cultures = conditions: pretreatment prior to hydrogen peroxide or glutamate exposure; in vitro; cited from earlier work
smiles,measurement,setting,value
C=CCN=C=S [allyl isothiocyanate],blood-brain barrier permeability (Evans Blue extravasation),blood-brain barrier; 2.8 mg/kg i.p. 6 hr after brain trauma,decreased blood-brain barrier permeability
S=C=NCCc1ccccc1 [phenylethyl isothiocyanate],blood-brain barrier permeability (Evans Blue extravasation),blood-brain barrier; 4.6 mg/kg i.p. 6 hr after brain trauma,decreased blood-brain barrier permeability
C[S@@+]([O-])CCCCN=C=S [sulforaphane],blood-brain barrier permeability (Evans Blue extravasation),blood-brain barrier; 5 mg/kg i.p. 6 hr after brain trauma,decreased blood-brain barrier permeability
same,Evan's blue dye extravasation into brain tissue (OD at 610 nm),"blood-brain barrier; 5 mg/kg i.p. at 6 h after TBI, 24 hr and 72 hr time points, ipsilateral side, P<0.05 vs vehicle",significantly attenuate dye extravasation
same,extravasation of Evan's Blue dye,"blood-brain barrier; oral 60 mg/kg/day for one or four days, day one given 6 hr following brain injury, P<0.05 vs vehicle",effective in decreasing the extravasation of Evan's Blue dye
same,AQP4 immuno-fluorescence intensity in the injury core,"aquaporin-4 (AQP4); 5 mg/kg i.p. at 6 hr after injury, 24 hr after injury, mean±S.E.M., n=4, injury-vehicle 13.79±2.22%, P<0.05",35.25±3.13%
same,AQP4 levels (fluorescence intensity) in the penumbra region,"aquaporin-4 (AQP4); post-injury administration, at both 24 hr and 3 days following injury, P<0.05 vs vehicle",significantly increased
same,"EBA staining, integrated fluorescent intensity",[1],significantly improves
same,GFAP immunoreactivity in the penumbra region,[2],lack of difference
same,"RECA staining, integrated fluorescent intensity",[3],significantly improves
same,"tight junction protein levels (claudin-5, occludin, ZO-1 immunoreactivity)",[4],significantly attenuated the loss
same,vWF levels (immunoreactivity),[5],partially restored
same,spatial learning and memory (latency to find the hidden platform),"brain injured rats [6]; 5 mg/kg 6 hr post-injury, days 14-18 post-injury, n=9, P<0.05 vs vehicle",improved spatial learning and memory
same,"working memory: latency to hidden platform, match trial vs location trial","brain injured rats [6]; 5mg/kg i.p. 6 hr post-injury, tested day 21 post-injury, n=8, P<0.05",find the hidden platform significantly faster during the match trial
same,difference in brain water content between injured and uninjured hemispheres,"brain swelling (edema); 5 mg/kg ip at 15 min and at 6 hr after injury, measured at 3 day following injury",significantly decreases the difference in brain water content
same,brain water content (difference in percent water content between injured and uninjured hemispheres),"brain swelling (edema); 5 mg/kg ip at 15 min and at 6 hr following injury, measured 24 hr following injury",decreases brain water content
same,increase in brain water content (difference between injured and uninjured hemispheres),"brain swelling (edema); delayed administration, 5 mg/kg ip at 6 hr after injury, measured at 3 days after injury",significantly reduces the increase in brain water content
same,extinction of fear memory (freezing during extinction training),"brain injured rats [7]; extinction on day 23 post-injury, n=8",Extinction was more rapid
same,memory for the extinction event (freezing to the tone),"brain injured rats [7]; tested 48 hr following extinction training, 3 tone presentations",reduced freezing to the tone
same,AQP4 mRNA level,AQP4 mRNA,289.76±16.52%
same,total infarct volume,[8],100.52±16.35 mm^3
same,neuroprotection of cortical cultures,cortical cultures,robust neuroprotection
